# Measured values: US20250177566A1, “USE OF CHEMICAL EPIGENETIC MODIFIERS TO MODULATE GENE EXPRESSION” (The University of North Carolina at Chapel Hill, priority 2022, published 2025)
# Tests used:
# BRD4 = target: T1, BRD4 (Homo sapiens, UniProt O60885+P62942); assay: BRD4 ChIP-seq, HCT116; assay type: cell-based
# T1 construct: achieved via the accumulation of endogenous epigenetic machinery at the designed gRNA targeted gene locus; endogenous in cells; host or cells: HCT116 cells stably expressing dCas9 and MS2-FKBP*x2, transfected with CXCR4 or NT gRNA
# T1 sequence (P62942 2-108 limits assumed, other chains not shown): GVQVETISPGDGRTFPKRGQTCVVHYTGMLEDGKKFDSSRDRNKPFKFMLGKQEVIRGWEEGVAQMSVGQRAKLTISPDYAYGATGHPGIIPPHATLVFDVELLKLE
# Source text: Given that SLF*-CEMa facilitates gene activation via recruitment of BET proteins including BRD4, BRD4 enrichment at a specific targeted gene locus was investigated to further validate the mechanism of CEM207. Based on the alamarBlue cell viability assay performed with HEK293T and HCT116 cells, CEM207 can have different toxicity effects on different cell lines after 4 days of exposure. Specifically, HCT116 appeared to be more tolerant to CEM207 treatment. […] Based on the cell viability data, chromatin immunoprecipitation-qPCR (ChIP-qPCR) was performed in stably infected HCT116 cells. […] The signal change was measured between samples when only CEM207 or gRNA are present and those where both are present. […] To determine outlier significance, a “z-score” distribution was calculated by taking the scaled means of the x- and y-axis values and calculated P values for each point within this distribution. […]
# ChIP-seq library preparation. […] Libraries were sequenced to a depth of 30 million […] (75-bp single-end reads) on an Illumina NextSeq 500.
# ChIP-seq analyses. Reads from the sequencer were demultiplexed using bcl2fastq (v2.20.0). Sequencing adapters on reads were trimmed using cutadapt (v1.12) using options -a GATCGGAAGAGC (SEQ ID NO: 35) and—minimum-length 36 in […]. […]
# HCT116 cells = assay: alamarBlue cell viability assay, HCT116; assay type: cell-based, human
# Method: FIGS. 8A-8B show alamarBlue cell viability assays. HEK293T or HCT116 cells were plated in 96-well plates 24 hrs before chemical treatment of 0.001, 0.01, 0.1, 1, 10, 50, and 100 μM CEM207 was added. Another group of cells were treated with all concentrations of CEM207 mentioned above along with 200 nM CEM87 in all samples. After 4 days of chemical exposure, cell growth was measured by fluorescence. […] HCT116 cells were stably infected with dCas9 and MS2-FKBP*x2 constructs and transfected with CXCR4 gRNA. After 24 hrs of 25 nM CEM207 treatment, ChIP-qPCR was performed at different base pair distances from the transcription start site of CXCR4 gene. […] Error bars represent the standard deviation.
# AlamarBlue cell viability assay. HEK293T or HCT116 cells were placed in black 96-well plates with clear bottom. 24 hrs later, media was exchanged to include 0.001, 0.01, 0.1, 1, 10, 50, 100 μM concentrations of CEM207, or all CEM207 concentrations above along with 200 nM CEM87. After 4 days of chemical exposure, alamarBlue Cell Viability Reagent (Invitrogen, DAL1025) was added to each well. Cells were incubated at 37° C. for 4 hrs and fluorescence was read using the TECAN Infinite F200 Fluorescence Microplate Reader. IC50 values were calculated using GraphPad Prism 9.
# CXCR4 protein = assay: CXCR4 cell membrane protein expression in HCT116 (APC anti-CXCR4 antibody, flow cytometry); assay type: cell-based, human; conditions: for fold change, CXCR4 protein (CXCR4 gRNA vs NT gRNA): FIG. 3E, 7B-7D
# Method: In addition, the change in CXCR4 protein expression was evaluated following CEM207 treatment at three different concentrations. CEM207 was chosen over CEM203 because of the lower concentration needed to reach a similar peak CXCR4 mRNA activation level. An APC anti-CXCR4 antibody was used to assess cell membrane CXCR4 protein expression via flow cytometry in dCas9 and MS2-FKBP*x2 stably infected HCT116 cells (FIG. 3E and FIGS. 7B-7D). CXCR4 protein levels were determined at 24, 48, and 72 hrs time points for each of the different concentrations of CEM207. […] Based on this protein expression data, it was concluded that the SLF*-CEMa technology can achieve effective gene-specific, dose-dependent activation at the mRNA and protein level.
structure (smiles),measurement,setting,value
"CC[C@H](C(=O)N1CCCC[C@H]1C(=O)O[C@H](CCc1ccc(OC)c(OC)c1)c1cccc(OCC(=O)NCCOCCOCCNC(=O)C[C@@H]2N=C(c3ccc(Cl)cc3)c3c(sc(C)c3C)-n3c(C)nnc32)c1)c1cc(OC)c(OC)c(OC)c1 [CEM207, (R)-1-(3-((14-((S)-4-(4-Chlorophenyl)-2,3,9-trimethyl-6H-thieno[3,2-f][1,2,4]triazolo[4,3-a][1,4]diazepin-6-yl)-2,13-dioxo-6,9-dioxa-3,12-diazatetradecyl)oxy)phenyl)-3-(3,4-dimethoxyphenyl) propyl(S)-1-((S)-2-(3,4,5-trimethoxyphenyl)butanoyl) piperidine-2-carboxylate]",BRD4 ChIP-seq signal at the CXCR4 locus,BRD4; 25 nM CEM207 + sgCXCR4,well-defined BRD4 signal peak at the CXCR4 locus
same,BRD4 peaks having a log2 fold-change in signal less than two in either direction,"BRD4; off-target assessment, CEM207 or gRNA only vs both present",96.8%
same,IC50,"HCT116 cells; CEM207 alone, 4 days of exposure",870 nM
same,IC50,"HCT116 cells; CEM207 in the background of 200 nM CEM87, 4 days of exposure",359 nM
same,time after CEM treatment of highest CXCR4 protein expression,"CXCR4 protein; 24, 48, 72 hrs time points",48 h
same,"fold change, CXCR4 protein (CXCR4 gRNA vs NT gRNA)","CXCR4 protein; 24 h time point, 5 nM",2.4 fold
same,"fold change, CXCR4 protein (CXCR4 gRNA vs NT gRNA)","CXCR4 protein; 24 h time point, 25 nM",4.6 fold
same,"fold change, CXCR4 protein (CXCR4 gRNA vs NT gRNA)","CXCR4 protein; 24 h time point, 50 nM",4.3 fold
same,"fold change, CXCR4 protein (CXCR4 gRNA vs NT gRNA)","CXCR4 protein; 48 h time point, 5 nM",2.4 fold
same,"fold change, CXCR4 protein (CXCR4 gRNA vs NT gRNA)","CXCR4 protein; 48 h time point, 25 nM",4.9 fold
same,"fold change, CXCR4 protein (CXCR4 gRNA vs NT gRNA)","CXCR4 protein; 48 h time point, 50 nM",5.8 fold
same,"fold change, CXCR4 protein (CXCR4 gRNA vs NT gRNA)","CXCR4 protein; 72 h time point, 5 nM",1.7 fold
same,"fold change, CXCR4 protein (CXCR4 gRNA vs NT gRNA)","CXCR4 protein; 72 h time point, 25 nM",4.2 fold
same,"fold change, CXCR4 protein (CXCR4 gRNA vs NT gRNA)","CXCR4 protein; 72 h time point, 50 nM",3.8 fold
same,concentration of maximum CXCR4 cell membrane protein expression,CXCR4 protein; remained the same at 50 nM,25 nM
